Experimental data reported in patent US5773459A, “Urea- and thiourea-type compounds” (Sugen, Inc., priority 1995, dated 1998).
Read-outs that look alike come from different tables or passages of the source.

Tested on: 3T3/IGF-1R cells
Test: IGF-1 Receptor Growth Assay (3T3/IGF-1R cells, SRB)
Format: cell-based
Experimental: Sulforhodamine B (SRB) Assay for Adherent Cells
Sulforhodamine B assays for measuring effects of TBST compounds on cell growth were based on procedures described by Skehan et al. J. Natl. Cancer Inst. 82:1107, 1990 incorporated herein by reference in its entirety, including any drawings. Unless otherwise stated the assays were carried out aseptically as follows:
IGF-1 Receptor Growth Assay
Cell lines: 3T3/IGF-1 R (10% FBS/2 mM glutamine/DMEM) NIH 3T3 c7 (10% calf serum/2 mM glutamine/DMEM) NOTE: NIH 3T3 cells (and cells derived from them) should never be allowed to become confluent because this increases the chance of spontaneous transformation. If they show signs of being transformed (morphological changes, piling up, moving into clumps), throw them away and thaw a fresh batch.
Materials: 10% FBS/2 mM glutamine/DMEM 0.5% FBS/2 mM glutamine/DMEM 10% calf serum/2 mM glutamine/DMEM IGF-1, 5 μM in sterile PBS (Promega/Fisher cat. #G5111) DMSO, tissue culture grade (Sigma cat. #D 2650) Hits from screen 11, 100 mM in DMSO 96-well plates, flat and round bottom 8 channel pipettor and sterile tips sterile reagent reservoirs sterile tubes (1.5 or 15 ml)
Methods (carry all steps out under asceptic conditions until fixing the cells for the SRB assay):
Day 0: Cell Plating--Trypsinize and count 3T3/IGF-1R and NIH 3T3 c7 cells. Dilute in growth media to 2000 cells/200 μl and seed flat bottom 96-well plates with 200 μl/well, one plate for two compounds for each cell line.
Day 1: Compound preparation--Add DMSO to each compound to make 100 mM stock solutions.
Aliquot each compound to 3-4 sterile screw cap tubes and store at -20° C. After thawing, make sure the compound has gone completely back into solution. Throw away after 3 freeze/thaws.
3T3/IGF-1R cells--For each 96-well plate, make 15 ml of 10 nM IGF-1/0.5% FBS/2 mM glutamine/DMEM (30 μl of 5 μM IGF-1/15 ml).
Aliquot 1.5 ml 10 nM IGF-1/0.5% FBS to a sterile tube for each compound to be tested (the first time a compound is tested, use a 15 ml tube in case it is necessary to add extra medium to get it into solution).
Add 3 μl of 100 mM stock of each compound to a tube so 200 μM final. Shake or vortex until it goes into solution. If it is necessary to add additional medium, note the final concentration.
For the DMSO control, prepare 0.5 ml/plate of 0.2% DMSO/10 nM IGF-1/0.5% FBS (2 μl DMSO/ml).
For every two compounds, aliquot 130 μl 10 nM IGF-1/0.5% FBS to wells in columns 2-11 of a 96-well round bottom plate.
Add 260 μl of each compound to four wells in column 12.
Do 2-fold dilutions (130 μl) from columns 12 to 3 on each plate (column 2 will be for the untreated control), mixing thoroughly.
Remove medium from 3T3/IGF-1 R cells, one plate at a time. […]

[1] = read-out: GROWTH DATA: 3T3/IGF1R-0.5% FBS
[2] = read-out: GROWTH DATA: 3T3/IGF1R-10% FBS

| SMILES | IC50 [1] [µM] | IC50 [2] [µM] |
| --- | --- | --- |
| CC(C)S(=O)(=O)c1csc(NC(=O)Nc2cc(C(F)(F)F)cc(C(F)(F)F)c2)c1Cl [Example Z2, N-[3-Chloro-4-(isopropylsulfonyl)thien-2-yl]-N'-(3,5-di-trifluoromethylphenyl)urea] | 0.7 | 20 |
| O=C(Nc1ccc(SC(F)(F)F)cc1)Nc1ccc(Oc2ccc(Cl)cc2Cl)nc1 [Example Z3] | 0.6 | 18 |
